Results from PubChem BioAssay AID330 (DTP/NCI, 2004).
Several values for one entry are separate records, joined by “and”; a condition that tells them apart may be missing. Equal entries are not always repeated. Inconclusive results and toxic doses are left out.

Test system: P388 leukemia ip, CD2F1 mice, survival T/C
Assay: NCI In Vivo Anticancer Drug Screen. Data for tumor model P388 Leukemia (intraperitoneal) in CD2F1 (CDF1) mice
Conditions: endpoint: median survival time, higher = longer survival
Summary of the method: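 Mice carrying the transplanted tumor received test compound or vehicle. Survival was recorded in each group, and the value is the treated-group measurement divided by that of the vehicle-treated control group.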

[1] = dose: 100.0 mg/kg/injection, schedule: Q04DX002 (ip), vehicle: saline with Tween-80
[2] = dose: 50.0 mg/kg/injection, schedule: Q01DX001 (ip), vehicle: saline
[3] = dose: 100.0 mg/kg/injection, schedule: Q01DX001 (ip), vehicle: saline
[4] = dose: 50.0 mg/kg/injection, schedule: Q01DX005 (ip), vehicle: saline with Tween-80
[5] = dose: 100.0 mg/kg/injection, schedule: Q01DX005 (ip), vehicle: saline with Tween-80
[6] = dose: 200.0 mg/kg/injection, schedule: Q01DX005 (ip), vehicle: saline with Tween-80
[7] = dose: 50.0 mg/kg/injection, schedule: Q01DX009 (ip), vehicle: saline
[8] = dose: 100.0 mg/kg/injection, schedule: Q01DX009 (ip), vehicle: saline
[9] = dose: 200.0 mg/kg/injection, schedule: Q01DX009 (ip), vehicle: saline
[10] = dose: 7.5 mg/kg/injection, schedule: Q01DX005 (ip), vehicle: saline with Tween-80
[11] = dose: 15.0 mg/kg/injection, schedule: Q01DX005 (ip), vehicle: saline with Tween-80
[12] = dose: 30.0 mg/kg/injection, schedule: Q01DX005 (ip), vehicle: saline with Tween-80
[13] = dose: 60.0 mg/kg/injection, schedule: Q01DX005 (ip), vehicle: saline with Tween-80
[14] = dose: 60.0 mg/kg/injection, schedule: Q01DX005 (ip), vehicle: Klucel (hydroxypropylcellulose) (HPC)
[15] = dose: 120.0 mg/kg/injection, schedule: Q01DX005 (ip), vehicle: Klucel (hydroxypropylcellulose) (HPC)
[16] = dose: 240.0 mg/kg/injection, schedule: Q01DX005 (ip), vehicle: Klucel (hydroxypropylcellulose) (HPC)
[17] = dose: 100.0 mg/kg/injection, schedule: Q01DX009 (ip), vehicle: suspension in saline
[18] = dose: 200.0 mg/kg/injection, schedule: Q01DX009 (ip), vehicle: suspension in saline
[19] = dose: 50.0 mg/kg/injection, schedule: Q01DX005 (ip), vehicle: Klucel (hydroxypropylcellulose) (HPC)
[20] = dose: 100.0 mg/kg/injection, schedule: Q01DX005 (ip), vehicle: Klucel (hydroxypropylcellulose) (HPC)
[21] = dose: 50.0 mg/kg/injection, schedule: Q01DX009 (ip), vehicle: saline with Tween-80
[22] = dose: 100.0 mg/kg/injection, schedule: Q01DX009 (ip), vehicle: saline with Tween-80
[23] = dose: 200.0 mg/kg/injection, schedule: Q01DX009 (ip), vehicle: saline with Tween-80
[24] = dose: 120.0 mg/kg/injection, schedule: Q01DX005 (ip), vehicle: saline with Tween-80
[25] = dose: 50.0 mg/kg/injection, schedule: Q01DX009 (ip), vehicle: Klucel (hydroxypropylcellulose) (HPC)
[26] = dose: 100.0 mg/kg/injection, schedule: Q01DX009 (ip), vehicle: Klucel (hydroxypropylcellulose) (HPC)
[27] = dose: 200.0 mg/kg/injection, schedule: Q01DX009 (ip), vehicle: Klucel (hydroxypropylcellulose) (HPC)

CCN(CC)C(=O)N1CCN(C(=O)c2cc(Nc3ccnc4cc(Cl)ccc34)ccc2O)CC1
T/C [1]: 100 % of control
T/C (dose: 200.0 mg/kg/injection, schedule: Q04DX002 (ip), vehicle: saline with Tween-80): 100 % of control
T/C (dose: 400.0 mg/kg/injection, schedule: Q04DX002 (ip), vehicle: saline with Tween-80): 89 % of control

CC(=O)Nc1ccc(N=NN(C)c2ccccc2)cc1
T/C [2]: 104 % of control
T/C [3]: 100 % of control

Nc1nc(Br)c2ncn(C3OC(CO)C(O)C3O)c2n1 (centres undefined)
T/C [4]: 101 % of control
T/C [5]: 101 % of control
T/C [6]: 94 % of control

Cc1ccc(NCC2CCCN3CCCCC23)c2c(=O)c3ccccc3sc12 (centres undefined)
T/C [4]: 101 % of control
T/C [7]: 97 % of control
T/C [5]: 96 % of control
T/C [8]: 99 % of control
T/C [6]: 106 % of control
T/C [9]: 124 % of control

COc1ccc(C2C3=C(CCCC3=O)Oc3cc4c(cc32)OCO4)cc1 (centres undefined)
T/C [10]: 100 % of control
T/C [11]: 94 % of control
T/C [12]: 92 % of control
T/C [13]: 90 % of control and 91 % of control

C/C(C=O)=C\c1ccc(N(C)C)cc1
T/C [14]: 101 % of control
T/C [15]: 101 % of control
T/C [16]: 100 % of control

COc1c2c(nc3ccccc13)-c1cc3c(c(=O)n1C2)COC(=O)C3(O)CC(=O)N1CCOCC1 (centres undefined)
T/C (dose: 12.5 mg/kg/injection, schedule: Q01DX009 (ip), vehicle: saline): 150 % of control
T/C [7]: 160 % of control
T/C [8]: 161 % of control
T/C [17]: 169 % of control
T/C [18]: 104 % of control

CC1OC(n2cc(F)c(=O)[nH]c2=O)CC1O (centres undefined)
T/C [2]: 104 % of control
T/C [3]: 106 % of control
T/C (dose: 200.0 mg/kg/injection, schedule: Q01DX001 (ip), vehicle: saline): 105 % of control

O=Cc1cc(/C(N=Nc2ccccc2C(=O)O)=N/Nc2ccccc2C(=O)O)nc2[nH]c(=O)ccc12
T/C [19]: 95 % of control
T/C [20]: 100 % of control

c1ccc2c(c1)Nc1ccccc1C1CC21 (centres undefined)
T/C [21]: 96 % of control
T/C [22]: 99 % of control
T/C [23]: 92 % of control

N#CCc1nc2ccccc2s1
T/C [12]: 102 % of control
T/C [13]: 107 % of control
T/C [24]: 102 % of control

CCOC(=O)c1csc(/C=C/c2cc(OC)c(OC)c(OC)c2)n1
T/C [13]: 105 % of control
T/C [24]: 100 % of control
T/C (dose: 240.0 mg/kg/injection, schedule: Q01DX005 (ip), vehicle: saline with Tween-80): 92 % of control

O=C(O)Cc1ccc(-c2cn3c(n2)sc2ccccc23)cc1
T/C [7]: 108 % of control
T/C [8]: 107 % of control
T/C [9]: 112 % of control

O=C(O)c1nc2ccccc2c2ncccc12
T/C (dose: 25.0 mg/kg/injection, schedule: Q04DX002 (ip), vehicle: saline with Tween-80): 101 % of control
T/C (dose: 50.0 mg/kg/injection, schedule: Q04DX002 (ip), vehicle: saline with Tween-80): 92 % of control
T/C [1]: 94 % of control

C/C(=C\C(=O)Nc1ncn[nH]1)Nc1ncn[nH]1
T/C [25]: 107 % of control
T/C [26]: 100 % of control
T/C [27]: 100 % of control
T/C (dose: 400.0 mg/kg/injection, schedule: Q01DX009 (ip), vehicle: Klucel (hydroxypropylcellulose) (HPC)): 99 % of control

COc1ccccc1-n1c(C)nc2[nH]ncc2c1=O
T/C [19]: 101 % of control
T/C [20]: 97 % of control
T/C (dose: 200.0 mg/kg/injection, schedule: Q01DX005 (ip), vehicle: Klucel (hydroxypropylcellulose) (HPC)): 96 % of control

C=CCNC(=O)SCC
T/C [4]: 107 % of control
T/C [5]: 116 % of control

COC1=CC(c2ccccc2)=N/C1=C/c1ccc[nH]1
T/C (dose: 50.0 mg/kg/injection, schedule: Q01DX001 (ip), vehicle: Klucel (hydroxypropylcellulose) (HPC)): 95 % of control
T/C (dose: 100.0 mg/kg/injection, schedule: Q01DX001 (ip), vehicle: Klucel (hydroxypropylcellulose) (HPC)): 100 % of control
T/C (dose: 200.0 mg/kg/injection, schedule: Q01DX001 (ip), vehicle: Klucel (hydroxypropylcellulose) (HPC)): 98 % of control

[C-]#[N+]C1CC2CCC1C2.[C-]#[N+]C1CC2CCC1C2.[C-]#[N+]C1CC2CCC1C2.[C-]#[N+]C1CC2CCC1C2.[C-]#[N+]C1CC2CCC1C2.[C-]#[N+]C1CC2CCC1C2.[Mn] (centres undefined)
T/C (dose: 0.19 mg/kg/injection, schedule: Q01DX009 (ip), vehicle: saline with Tween-80): 115 % of control
T/C (dose: 0.38 mg/kg/injection, schedule: Q01DX009 (ip), vehicle: saline with Tween-80): 156 % of control

[Fe].[c-]1[c-][c-][c-](Cn2nnc3ccccc32)[c-]1.[c-]1[c-][c-][cH-][c-]1
T/C [21]: 105 % of control
T/C [22]: 102 % of control
T/C [23]: 95 % of control

CC(C)(C)C[C](C)(c1ccccc1)[Sn]([CH3])([CH3])[CH3] (centres undefined)
T/C [25]: 94 % of control
T/C [26]: 102 % of control
T/C [27]: 102 % of control

O=NNc1ncc([N+](=O)[O-])s1
T/C (dose: 3.12 mg/kg/injection, schedule: Q01DX009 (ip), vehicle: water): 103 % of control
T/C (dose: 6.25 mg/kg/injection, schedule: Q01DX009 (ip), vehicle: water): 97 % of control
T/C (dose: 12.5 mg/kg/injection, schedule: Q01DX009 (ip), vehicle: water): 94 % of control
T/C (dose: 25.0 mg/kg/injection, schedule: Q01DX009 (ip), vehicle: water): 100 % of control and 96 % of control
T/C (dose: 50.0 mg/kg/injection, schedule: Q01DX009 (ip), vehicle: water): 100 % of control and 97 % of control
T/C (dose: 100.0 mg/kg/injection, schedule: Q01DX009 (ip), vehicle: water): 101 % of control
T/C (dose: 200.0 mg/kg/injection, schedule: Q01DX009 (ip), vehicle: water): 105 % of control

S=c1[nH]ccn1-c1ccccc1Cl
T/C [14]: 101 % of control
T/C [15]: 106 % of control
T/C [16]: 109 % of control

C1=C(c2ccccc2)CC2CCC1N2Cc1ccccc1 (centres undefined)
T/C (dose: 12.5 mg/kg/injection, schedule: Q01DX005 (ip), vehicle: saline with Tween-80): 99 % of control
T/C (dose: 25.0 mg/kg/injection, schedule: Q01DX005 (ip), vehicle: saline with Tween-80): 103 % of control
T/C [4]: 101 % of control and 103 % of control

Nc1ncc2[nH]c(=O)[nH]c2n1
T/C [4]: 101 % of control
T/C [5]: 100 % of control
T/C [6]: 99 % of control

COc1cccc2c1C(=O)c1c(O)c(CCl)cc(OC)c1C2=O
T/C [10]: 108 % of control
T/C [11]: 117 % of control
T/C [12]: 114 % of control
T/C [13]: 101 % of control

Brc1cc2ccccc2c2ccccc12
T/C [21]: 99 % of control
T/C [22]: 99 % of control
T/C [23]: 93 % of control
T/C (dose: 400.0 mg/kg/injection, schedule: Q01DX009 (ip), vehicle: saline with Tween-80): 93 % of control

ClC(Cl)Oc1ccccc1
T/C (dose: 10.0 mg/kg/injection, schedule: Q01DX009 (ip), vehicle: saline with Tween-80): 97 % of control
T/C (dose: 20.0 mg/kg/injection, schedule: Q01DX009 (ip), vehicle: saline with Tween-80): 106 % of control
T/C (dose: 40.0 mg/kg/injection, schedule: Q01DX009 (ip), vehicle: saline with Tween-80): 103 % of control

COC(=O)c1c2cc(C(C)(C)C)cc-2c(N(C)C)nc(N(C)C)c1C(=O)OC
T/C [14]: 95 % of control
T/C [15]: 95 % of control

Cc1cc2nc3[nH]c4ccccc4c3nc2cc1C
T/C (dose: 25.0 mg/kg/injection, schedule: Q01DX009 (ip), vehicle: suspension in saline): 94 % of control
T/C (dose: 50.0 mg/kg/injection, schedule: Q01DX009 (ip), vehicle: suspension in saline): 92 % of control
T/C [17]: 94 % of control
T/C [18]: 92 % of control

O=C(O)c1cc(-c2c(Cl)cccc2Cl)nc2cc3ccccc3cc12
T/C [25]: 111 % of control
T/C [26]: 106 % of control
T/C [27]: 106 % of control

CC(C)c1nc(N)nc(N)n1
T/C [7]: 93 % of control
T/C [9]: 90 % of control
